Results published in patent publication US11780845B2 (Relay Therapeutics, Inc., priority 2019, dated 2023).

What was measured:
FGFR2 = FGFR2 (Homo sapiens (Human), UniProt P21802); test: Biochemical FGFR2 Caliper assay
SNU-16 = test: Cell SNU-16 assay; type: cell-based; conditions: Homo sapiens, SNU-16, SNU-16 cells

Chain of FGFR2 (P21802 22-821): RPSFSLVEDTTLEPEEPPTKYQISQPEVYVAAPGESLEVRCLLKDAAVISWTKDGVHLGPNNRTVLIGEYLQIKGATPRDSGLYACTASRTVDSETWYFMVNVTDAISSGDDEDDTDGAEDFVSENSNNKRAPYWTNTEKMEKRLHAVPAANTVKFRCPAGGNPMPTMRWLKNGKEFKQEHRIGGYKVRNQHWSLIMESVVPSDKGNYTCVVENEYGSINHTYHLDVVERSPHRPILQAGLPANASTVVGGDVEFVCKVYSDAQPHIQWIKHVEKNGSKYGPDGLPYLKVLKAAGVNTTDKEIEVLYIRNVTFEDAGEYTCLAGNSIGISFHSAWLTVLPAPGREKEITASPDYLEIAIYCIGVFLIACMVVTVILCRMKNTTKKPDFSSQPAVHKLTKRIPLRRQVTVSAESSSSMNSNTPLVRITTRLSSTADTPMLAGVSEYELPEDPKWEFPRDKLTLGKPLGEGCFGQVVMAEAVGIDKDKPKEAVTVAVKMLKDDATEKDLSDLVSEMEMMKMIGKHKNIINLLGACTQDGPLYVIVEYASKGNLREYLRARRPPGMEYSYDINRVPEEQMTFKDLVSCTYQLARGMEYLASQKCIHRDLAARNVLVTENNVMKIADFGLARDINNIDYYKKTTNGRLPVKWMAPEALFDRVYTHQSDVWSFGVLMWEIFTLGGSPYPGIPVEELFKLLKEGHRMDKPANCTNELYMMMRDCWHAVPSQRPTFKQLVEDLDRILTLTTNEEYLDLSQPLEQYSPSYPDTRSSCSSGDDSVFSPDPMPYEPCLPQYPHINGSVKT

Structure (SMILES) | IC50 (FGFR2) | IC50 (SNU-16)
C#Cc1ncc(-c2c(-c3ccc(Oc4nccc(C)n4)c(F)c3)c3c(N)ncnc3n2C)c(C)c1F [Example 1313] | < 100 nM | ≤ 100 nM
C#Cc1cnc(-c2c(-c3ccc(Oc4nccc(C)n4)c(F)c3)c3c(N)ncnc3n2C)c(CN(C)C)c1 [Example 1314] | 100 to 250 nM | ≤ 100 nM
C=CC(=O)Nc1ccc(-c2c(-c3ccc(-n4cc(C)cn4)nc3)c3c(C)ncnc3n2C)cc1 [Example 1315] | 100 to 250 nM | 250 to 1000 nM
C=C(C)C(=O)Nc1ccc(-c2c(-c3ccc(-n4cc(CC)cn4)nc3)c3c(N)ncnc3n2C)cc1 [Example 1316] | 250 to 1000 nM | 250 to 1000 nM
C#Cc1cc(C)c(-c2c(C3=CC[C@H](C(=O)N4CCC[C@H]4C)CC3)c3c(N)ncnc3n2C)c(F)n1 [Example 1319] | < 100 nM | ≤ 100 nM
C#Cc1nc2cc(-c3c(C4=CC[C@@H](C(=O)N5CCC[C@H]5COC)CC4)c4c(N)ncnc4n3C)ccc2[nH]1 [Example 1320] | < 100 nM | 250 to 1000 nM
C#Cc1cc(C)c(-c2cn3ncnc(N)c3c2-c2ccc(Oc3nccc(C)n3)c(F)c2)cn1 [Example 1321] | < 100 nM | ≤ 100 nM
C#Cc1cc(C)c(-c2c(-c3ccc(Oc4nccc(C)n4)c(F)c3)c3c(N)ncnc3n2C)c(F)n1 [Example 1322] | < 100 nM | ≤ 100 nM
C=C(C)C(=O)Nc1ccc(-c2c(-c3ccc4c(C(=O)NC5CC5)n[nH]c4c3)c3c(N)ncnc3n2C)cc1 [Example 1323] | 1000 to 100000 nM | 1000 to 100000 nM
C=C(C)C(=O)Nc1ccc(-c2c(-c3ccc4c(C(=O)NCC5CC5)n[nH]c4c3)c3c(N)ncnc3n2C)cc1 [Example 1324] | 1000 to 100000 nM | 1000 to 100000 nM
C#Cc1cc(C)c(-c2c(C3=CC[C@H](C(=O)N4CCCC45CC5)CC3)c3c(N)ncnc3n2C)cn1 [Example 1325] | 250 to 1000 nM | 250 to 1000 nM
C#Cc1cc(C)c(-c2c(-c3ccc(Oc4nccc(C)n4)cn3)c3c(N)ncnc3n2C)cn1 [Example 1327] | < 100 nM | ≤ 100 nM
C#Cc1ncc(-c2c(-c3ccc(Oc4nccc(C)n4)cn3)c3c(N)ncnc3n2C)c(C)c1F [Example 1328] | < 100 nM | ≤ 100 nM
C#Cc1ncc(-c2c(-c3ccc(Oc4nccc(C)n4)c(F)c3)c3c(N)ncnc3n2C(C)C)c(C)c1F [Example 1334] | < 100 nM | ≤ 100 nM
C#Cc1ncc(-c2c(-c3ccc(Oc4nccc(C)n4)c(F)c3)c3c(N)ncnc3n2C)c(OC)c1F [Example 1336] | < 100 nM | ≤ 100 nM
C=C(C)C(=O)Nc1ccc(-c2c(C3=CC[C@]4(CC3)Cc3ccc(OC)nc3C4=O)c3c(N)ncnc3n2C)cc1 [Example 1337] | 100 to 250 nM | ≤ 100 nM
C=C(C)C(=O)Nc1ccc(-c2c(C3=CC[C@@]4(CC3)Cc3ccc(OC)nc3C4=O)c3c(N)ncnc3n2C)cc1 [Example 1338] | 1000 to 100000 nM | 1000 to 100000 nM
C#Cc1cc(C)c(-c2c(C3=CC[C@@H](C(=O)N4CCCC45CC5)CC3)c3c(N)ncnc3n2C)cn1 [Example 1341] | < 100 nM | 250 to 1000 nM
C=C(C)C(=O)Nc1ccc(-c2c(-c3ccc4ncnn4c3)c3c(N)ncnc3n2C)cc1 [Example 1343] | 1000 to 100000 nM | 1000 to 100000 nM
C=C(C)C(=O)Nc1ccc(-c2c(-c3ccc4nccn4c3)c3c(N)ncnc3n2C)cc1 [Example 1345] | 1000 to 100000 nM | 1000 to 100000 nM
C#Cc1nc2cc(-c3c(C4=CC[C@H](C(=O)N5CCC[C@H]5COC)CC4)c4c(N)ncnc4n3C)ccc2[nH]1 [Example 1346] | < 100 nM | 250 to 1000 nM
C#Cc1cc(C)c(-c2c(C3=CC[C@@H](C(=O)N4CCC[C@H]4C)CC3)c3c(N)ncnc3n2C)c(F)n1 [Example 1347] | < 100 nM | ≤ 100 nM
C=C(C)C(=O)Nc1ccc(-c2c(-c3ccn4ncnc4c3)c3c(N)ncnc3n2C)cc1 [Example 1350] | 1000 to 100000 nM | 1000 to 100000 nM
C=C(C)C(=O)Nc1ccc(-c2c(-c3cnc4nncn4c3)c3c(N)ncnc3n2C)cc1 [Example 1351] | 1000 to 100000 nM | 1000 to 100000 nM
